In patent US20250128203A1, “MODIFIED REDOX-ACTIVE SORBENTS FOR ELECTROCHEMICAL CARBON DIOXIDE SEPARATION” (The Johns Hopkins University, priority 2023, published 2025):
Values after ≈ are worked out from the molar mass of the structure shown. Values joined by “and” are separate entries in the source; they are usually repeats but may differ in a detail not shown here. Equal values may be shown once.

Tests used:
[1] = Cyclic voltammetry of isoindigos in DMF (half-wave redox potentials under N2 or CO2); assay type: physicochemical; settings: for E1/2 (IId/IId·−) in N2: Table 1, first electron transfer, N2, DMF; for E1/2 in N2 (first): first half-wave potential vs. Fc^+/Fc; for E1/2 in N2 (first) / E1/2 in N2 (second): 0.1 M NBu4PF6, N2, 298 K; for E1/2 in CO2 (first or single) / Experimental 1st half-wave potential in N2: vs. Fc^+/Fc; for Experimental 1st half-wave potential in N2: Table 5
Description: (§1) Electrochemical measurements were conducted using a BioLogic VSP potentiostat (BioLogic Science Instruments). For the cyclic voltammetry measurements, glassy carbon (Ø=3 mm) was used as the working electrode, platinum wire was used as the counter electrode, silver wire was used as the pseudo-reference electrode and ferrocene was used as the internal reference. In a standard cyclic voltammetry measurement, the molecule of interest (2.5 mM) was dissolved in anhydrous DMF with 100 mM NBu4PF6 as the supporting salt. Typical cyclic voltammograms were collected at a scan rate of […]. To study the effects of ionic species on the redox behaviour of the sorbent molecules, 100 mM LiClO4, NaClO4, KClO4, NBu4ClO4, sodium triflate (NaOTf), or sodium bis(trifluoromethanesulfonyl)imide (NaTFSI) was used as the supporting electrolyte salt.

[2] = CO2 binding constant (KCO2) calculated from the shift of the second reduction peak in CV; settings: for K[CO2] / logK[CO2]: DMF; for ΔEpeak(2): difference between the second reduction peak potentials (IId·−/IId2−) in CO2 and N2
Description: as §1
The CO2 binding constant (KCO2) was calculated by Eq 1: […]

[3] = Chronoamperometry: reaction rate constant between isoindigo radical anion and CO2; settings: isoindigo 5 mM in DMF, 0.1 M NBu4PF6; for kbimolecular: first CO2 binding; for kf (20% CO2): forward rate constant
Text: In electrochemistry, the Cottrell equation describes the current response (i) when the potential is a step function in time (t):
where i is current, n is the number of electrons transferred per molecule, A is the area of the electrode, C*0 is the bulk concentration of the redox-active isoindigo molecule, D is the diffusion coefficient, and t is time. The expected current for a diffusion limited electrochemical process following an ECE (electron transfer, chemical reaction, electron transfer) mechanism at a plane electrode under diffusion-controlled conditions is:
where n1 and n2 are the number of electrons transferred in the first and second step, respectively, and kf is the forward reaction rate constant of the chemical reaction. Here, to calculate kf after the first electron transfer, n2 and n1 are set to 1. Eq 3 then becomes:
The integrated Cottrell equation relates total charge Q with time for chronoamperometry: […]
Then, the constant k can be calculated, here k is assumed constant:
To calculate kf, the constant k is calculated using Eq 5 using potentiostatic measurements. Plugging in Eq 6, and rearranging Eq 4 gives:
The data for determining kf is shown in FIGS. 22 to 25 using 5 mM sorbent molecules in 0.1 M NBu4PF6 DMF electrolyte. The value k was determined using data under N2; kf was obtained under 1 bar 20% CO2 (0.0396 M CO2 in solution).

[4] = UV-vis absorption, optical band gap; assay type: physicochemical; settings: UV-vis absorption (Kubelka-Munk spectra)
Description: UV-vis absorption spectra were recorded on a Thermo Scientific Genesys 10S UV-vis spectrophotometer.

[5] = Flow-based EMCC prototype, cyclic CO2 capture/release
Description: In a typical experiment, the sorbent tank (20 mL scintillation vial with septum cap) was continuously bubbled with CO2 feed gas (balanced by N2) with the flow rate controlled by a mass flow controller (Alicat). For testing under simulated flue gas conditions, a gas mixture of 10% CO2+3% O2 balanced by N2 was used. An infrared-based CO2 sensor (SprintIR-W 100%) was connected at the gas exit to monitor the CO2 concentration continuously. The tank headspace was filled with plastic beads (McMaster-Carr) to limit the mixing time in the headspace. The Fc tank was kept air free. A two-channel peristaltic pump (Masterflex) circulated the sorbent and the Fc electrolyte to a commercial flow cell (Scribner) at a flow rate of 10 mL min^−1. The flow cell utilised graphite plates with 5 cm^2 interdigitated flow fields pressed against two pieces of carbon paper electrodes (Sigracet 28 AA) at each side of the graphite electrodes to distribute the liquid flow. A Nafion™ 115 membrane was sandwiched by two pieces of polypropylene and placed between the carbon paper electrodes. The cell was kept sealed by Kalrez fluoropolymer elastomer gaskets (0.02 inches thick). CO2 capture was conducted in a constant current mode while the release was carried out following a constant current/constant voltage protocol (that is, oxidizing the adduct at a constant current until a specific cut-off voltage followed by a constant voltage hold (the cut-off current for the constant voltage hold was 5% of the value used in the constant current oxidation). The cycling protocols of each experiment are provided in the corresponding figure captions.
For experiments using 6MCIId sorbent, we added 10 mM 6MCIId and 4 mM ferrocenium tetrafluoroboronate (FcBF4) into the CE tank to mitigate sorbent crossover and facilitate the reduction of the oxidised ferrocenium in the counter electrolyte, respectively. For less soluble 55DBIId and 66DBIId, the sorbent was dispersed in DMAc to form a slurry catholyte.

Solubility in DMF = assay type: physicochemical; settings: for solubility: organic solvent or mixture
[6] = second half-wave potential vs. Fc^+/Fc, 2.5 mM in DMF
[7] = 2.5 mM in DMF, 0.1 M NBu4PF6, CO2, 298 K

Row | Compound | E1/2 (IId/IId·−) in N2 [1] [V vs. Fc^+/Fc] | E1/2 in N2 (first) ([1]; 2.5 mM in DMF) | E1/2 in N2 (second) [1, 6] [V] | E1/2 in CO2 (first or single) [1, 7] | K[CO2] ([2]; 298 K) [M⁻¹] | logK[CO2] ([2]; 298 K) | logK[CO2] ([2]; Table 1) | ΔEpeak(2) [2] [V] | kbimolecular [3] | kf (20% CO2) [3] [s⁻¹] | Optical band gap [4] [eV] | Experimental 1st half-wave potential in N2 [1] [V] | Solubility in DMF (Solubility in DMF) [mM] | solubility (Solubility in DMF) [mM] | other results
1 | CCCN1C(=O)/C(=C2/C(=O)N(CCC)c3cc(Br)ccc32)c2ccc(Br)cc21 [NNDPr66DBIId, N,N′-Dipropyl-6,6′-dibromoisoindigo] | −1.07 | −1.07, V | −1.61 | −1.08, V | 74800 | 4.48 | 4.87 | 0.247 | 3.3 M⁻¹ s⁻¹ and 3.31 M⁻¹ s⁻¹ | 0.131 | 2.02 | – | – | – | E1/2 in CO2 (second) ([1]; second half-wave potential vs. Fc^+/Fc, 2.5 mM in DMF, 0.1 M NBu4PF6, CO2, 298 K): −1.34 V
2 | O=C1Nc2cc(Br)ccc2/C1=C1\C(=O)Nc2cc(Br)ccc21 [66DBIId, 6,6′-Dibromoisoindigo] | −1.14 | – | −1.67 | −1.12 V | 38800 | 9.59 | 9.59 | 0.525 | 18.64 M⁻¹ s⁻¹ | 0.738 | 2.06 | −1.14 | – | – | Sorbent recovered from the sorbent electrolyte after cycling ([5]; after 11 capture/release cycles over 50+ hours): 87%; Sorbent isomerized into cis-isomer after cycling ([5]; after 11 capture/release cycles over 50+ hours, 1H NMR): approximately 24%
3 | COC(=O)c1ccc2c(c1)NC(=O)/C2=C1/C(=O)Nc2cc(C(=O)OC)ccc21 [66DMCIId, Dimethyl isoindigo-6,6′-dicarboxylate] | – | −0.97, V | −1.41 | −0.91 V | 1.17e+08 | 8.07 | – | 0.435 | – | – | 2.02 | – | <2.5 | < 2.5 | Positive shift of E1/2 under CO2 compared to unmodified IId ([1]; under CO2, DMF): 300 mV
4 | COC(=O)CNC(=O)c1ccc2c(c1)NC(=O)/C2=C1/C(=O)Nc2ccccc21 [6AIIdGly, Methyl isoindigo-6-carbonylglycinate] | – | −1.17, V | −1.62 | −1.08 V | 4.3e+08 | 8.63 | – | 0.469 | 19.85 M⁻¹ s⁻¹ | 0.786 | 2.04 | – | 606 (≈ 229 mg/mL) | – | –
5 | COC(=O)c1ccc2c(c1)NC(=O)/C2=C1/C(=O)Nc2ccccc21 [6MCIId, Methyl isoindigo-6-carboxylate] | −1.12 | −1.12, V | −1.62 | −1.09 V | 7.78e+08 | 8.89 | 8.89 | 0.484 | 22.45 M⁻¹ s⁻¹ | 0.889 | 2.03 | – | – | 515 (≈ 165 mg/mL) | –
6 | O=C1Nc2ccc(Br)cc2/C1=C1\C(=O)Nc2ccc(Br)cc21 [55DBIId, 5,5′-Dibromoisoindigo] | −1.09 | −1.09 V and −1.09, V | −1.61 | −1.09 V | 2.16e+09 | 9.33 | 9.33 | 0.510 | – | – | 1.99 | −1.09 | – | 6.3 (≈ 2.65 mg/mL) | CO2 release at approximately −1 V vs. Fc^+/Fc in the presence of water ([1]; 10 vol % water): gets suppressed; Electrochemical behaviours in the presence of O2 ([1]; up to 16% CO2 and 20% O2, 2.5 mM in DMF, 0.1 M NBu4PF6): remained almost unaffected
7 | COC(=O)C(CO)NC(=O)c1ccc2c(c1)NC(=O)/C2=C1/C(=O)Nc2cc(Br)ccc21 (stereo not drawn) [6B6AIIdSer, Methyl 6-bromoisoindigo-6′-carbonylserinate] | – | −1.11, V | −1.55 | −1.11 V | 5.41e+08 | 8.73 | – | 0.475 | – | – | 2.03 | – | 568 (≈ 276 mg/mL) | – | Cycling stability ([5]; more than 40 cycles and approximately 200 hours of operation): negligible voltage decay
8 | O=C1Nc2ccccc2/C1=C1\C(=O)Nc2ccccc21 [IId, Isoindigo] | −1.29 | −1.29 V and −1.29, V | −1.79 | −1.21 V | 2.19e+09 | 9.34 | 9.34 | 0.511 | – | – | 2.04 | −1.29 | – | ~230 (≈ 60.3 mg/mL) | –
